Data reported in patent US8815882B2, “Pyrazole aminopyrimidine derivatives as LRRK2 modulators” (Genentech, Inc., priority 2010, dated 2014).
Like-named read-outs stand apart in the source and are kept apart here.

Target: T1, LRRK2 (Homo sapiens, UniProt Q5S007, G2019S)
T1 construct: purchased Invitrogen PV4882 (lot 567054A)
Experiment: In Vitro LRRK2 Assay (LabChip 3000, fluorescently-labeled peptide substrate, ATP)
Type: biochemical
How it was run: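 Read-out was LabChip capillary electrophoresis, resolving phospho- from non-phospho-peptide by fluorescence intensity. The kinase reaction combined enzyme, ATP, test compound and labeled peptide (4 μM working dilution) for 2 h in darkness before stop solution. Values were reported as Ki, from a tight-binding model with Et, S and Km, or as IC50 or percent inhibition.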

[1] = read-out: LRRK2 Ki (KI), Table 8
[2] = Table 9, LRRK2 Ki (micromolar), read-out: LRRK2 Ki (KI)
[3] = Table 10, LRRK2 Ki (micromolar), read-out: LRRK2 Ki (KI)
[4] = read-out: LRRK2 Ki (KI), Table 7

T1 sequence (Q5S007 whole entry G2019S): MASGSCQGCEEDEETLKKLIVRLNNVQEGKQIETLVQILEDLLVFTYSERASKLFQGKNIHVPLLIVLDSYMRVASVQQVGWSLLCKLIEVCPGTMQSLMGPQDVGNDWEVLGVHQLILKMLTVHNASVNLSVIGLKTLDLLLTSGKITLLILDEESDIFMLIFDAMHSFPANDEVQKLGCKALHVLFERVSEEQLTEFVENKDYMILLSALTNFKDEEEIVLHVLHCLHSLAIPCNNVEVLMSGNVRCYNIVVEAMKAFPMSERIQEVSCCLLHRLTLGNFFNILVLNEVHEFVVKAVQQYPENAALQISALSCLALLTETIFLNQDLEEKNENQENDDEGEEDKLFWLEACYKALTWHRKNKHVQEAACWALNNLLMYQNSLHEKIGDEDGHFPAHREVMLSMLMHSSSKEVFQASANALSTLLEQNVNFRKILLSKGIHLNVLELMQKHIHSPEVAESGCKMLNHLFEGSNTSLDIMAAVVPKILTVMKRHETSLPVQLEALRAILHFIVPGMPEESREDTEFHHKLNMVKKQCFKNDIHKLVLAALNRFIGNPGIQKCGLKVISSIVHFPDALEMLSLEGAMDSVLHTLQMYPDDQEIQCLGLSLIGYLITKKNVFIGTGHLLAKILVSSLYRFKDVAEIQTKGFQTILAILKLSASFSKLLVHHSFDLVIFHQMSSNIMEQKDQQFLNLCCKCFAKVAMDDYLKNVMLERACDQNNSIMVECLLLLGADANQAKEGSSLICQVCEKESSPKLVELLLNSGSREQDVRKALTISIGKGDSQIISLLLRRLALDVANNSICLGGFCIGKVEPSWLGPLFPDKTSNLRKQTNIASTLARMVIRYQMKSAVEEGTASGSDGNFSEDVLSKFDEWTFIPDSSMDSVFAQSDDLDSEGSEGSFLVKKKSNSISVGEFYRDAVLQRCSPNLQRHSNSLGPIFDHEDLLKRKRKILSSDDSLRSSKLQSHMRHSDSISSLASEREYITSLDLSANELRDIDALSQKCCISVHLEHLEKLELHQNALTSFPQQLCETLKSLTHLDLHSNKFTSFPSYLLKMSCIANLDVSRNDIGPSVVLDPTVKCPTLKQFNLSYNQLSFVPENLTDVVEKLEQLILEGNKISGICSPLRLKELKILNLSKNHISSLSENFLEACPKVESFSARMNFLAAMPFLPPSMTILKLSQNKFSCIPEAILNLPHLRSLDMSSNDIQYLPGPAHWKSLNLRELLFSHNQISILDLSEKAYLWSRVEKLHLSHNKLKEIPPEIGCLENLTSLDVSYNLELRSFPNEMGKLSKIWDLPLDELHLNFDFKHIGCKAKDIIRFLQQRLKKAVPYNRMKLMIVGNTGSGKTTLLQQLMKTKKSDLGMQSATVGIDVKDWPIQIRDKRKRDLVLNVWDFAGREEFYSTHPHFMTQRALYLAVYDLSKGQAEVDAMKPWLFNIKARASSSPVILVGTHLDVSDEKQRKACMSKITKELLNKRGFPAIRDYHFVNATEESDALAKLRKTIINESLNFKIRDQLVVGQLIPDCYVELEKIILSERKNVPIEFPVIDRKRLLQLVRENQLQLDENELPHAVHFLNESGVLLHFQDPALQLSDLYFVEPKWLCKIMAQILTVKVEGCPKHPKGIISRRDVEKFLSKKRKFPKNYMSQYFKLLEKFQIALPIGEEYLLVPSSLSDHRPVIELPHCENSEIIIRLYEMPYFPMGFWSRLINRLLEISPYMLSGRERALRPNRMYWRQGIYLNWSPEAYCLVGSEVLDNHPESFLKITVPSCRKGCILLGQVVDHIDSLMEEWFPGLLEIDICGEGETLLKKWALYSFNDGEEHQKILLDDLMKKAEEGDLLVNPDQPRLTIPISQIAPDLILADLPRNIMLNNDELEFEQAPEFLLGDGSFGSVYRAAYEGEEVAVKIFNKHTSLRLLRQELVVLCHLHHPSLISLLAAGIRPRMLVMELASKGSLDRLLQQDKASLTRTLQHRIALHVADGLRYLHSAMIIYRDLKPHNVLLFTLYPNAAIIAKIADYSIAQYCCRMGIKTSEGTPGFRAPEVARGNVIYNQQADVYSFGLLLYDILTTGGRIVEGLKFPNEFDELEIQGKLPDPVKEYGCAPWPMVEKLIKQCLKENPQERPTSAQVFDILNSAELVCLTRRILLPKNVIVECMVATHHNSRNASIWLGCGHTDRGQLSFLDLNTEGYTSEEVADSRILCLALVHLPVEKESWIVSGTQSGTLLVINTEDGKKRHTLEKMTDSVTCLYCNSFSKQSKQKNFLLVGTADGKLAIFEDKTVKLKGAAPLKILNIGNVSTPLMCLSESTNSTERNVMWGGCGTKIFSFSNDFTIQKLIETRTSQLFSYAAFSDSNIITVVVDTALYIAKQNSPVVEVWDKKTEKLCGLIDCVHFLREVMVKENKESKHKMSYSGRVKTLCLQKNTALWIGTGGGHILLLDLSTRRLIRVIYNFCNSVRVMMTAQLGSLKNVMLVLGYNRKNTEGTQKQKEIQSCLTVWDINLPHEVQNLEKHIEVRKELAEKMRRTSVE

Row | Structure (SMILES) | Ki [1] | other results
1 | CNc1nc(Nc2cn(Cc3cccnc3)nc2C)ncc1C(F)(F)F [Example 289, N4-Methyl-N2-(3-methyl-1-pyridin-3-ylmethyl-1H-pyrazol-4-yl)-5-trifluoromethyl-pyrimidine-2,4-diamine] | 25 nM | –
2 | Cc1nc(Nc2cn(-c3ccc(S(C)(=O)=O)cc3)nc2C)ncc1Cl [Example 173, 5-chloro-4-methyl-N-(3-methyl-1-(4-(methylsulfonyl)phenyl)-1H-pyrazol-4-yl)pyrimidin-2-amine] | 484 nM | –
3 | CCNc1nc(Nc2cnn(CC(C)(C)C#N)c2Cl)ncc1C(F)(F)F [Example 318, 3-[5-Chloro-4-(4-ethylamino-5-trifluoromethyl-pyrimidin-2-ylamino)-pyrazol-1-yl]-2,2-dimethyl-propionitrile] | 0.7 nM | –
4 | CNc1nc(Nc2cn(C3CCN(CC(F)(F)F)CC3)nc2C)ncc1C#N [Example 355, 2-(3-methyl-1-(1-(2,2,2-trifluoroethyl)piperidin-4-yl)-1H-pyrazol-4-ylamino)-4-(methylamino) pyrimidine-5-carbonitrile] | – | Ki [2]: 299 nM
5 | CCNc1nc(Nc2cn(C(C)(C)C(=O)NC)nc2C)ncc1C(F)(F)F [Example 303, 2-[4-(4-Ethylamino-5-trifluoromethyl-pyrimidin-2-ylamino)-3-methyl-pyrazol-1-yl]-N-methyl-isobutyramide] | 1.3 nM | –
6 | CNc1nc(Nc2cn(-c3ccc(Cl)cc3)nc2C)ncc1C#N [Example 368, 2-(1-(4-chlorophenyl)-3-methyl-1H-pyrazol-4-ylamino)-4-(methylamino) pyrimidine-5-carbonitrile] | – | Ki [2]: 82 nM
7 | CNc1nc(Nc2cnn(C3CCC(=O)NC3)c2C)ncc1C(F)(F)F (stereo not shown) [Example 154, 5-(5-methyl-4-(4-(methylamino)-5-(trifluoromethyl)pyrimidin-2-ylamino)-1H-pyrazol-1-yl)piperidin-2-one] | 2.2 nM | –
8 | CNc1nc(Nc2cnn([C@@H]3CCN(C4COC4)C3)c2C)ncc1C(F)(F)F [Example 211, (R)-N4-methyl-N2-(5-methyl-1-(1-(oxetan-3-yl)pyrrolidin-3-yl)-1H-pyrazol-4-yl)-5-(trifluoromethyl) pyrimidine-2,4-diamine] | 3.3 nM | –
9 | CNC(=O)C(C)(C)n1ncc(Nc2ncc(C(F)(F)F)c(NC3CC3)n2)c1C [Example 450, 2-[4-(4-Cyclopropylamino-5-trifluoromethyl-pyrimidin-2-ylamino)-5-methyl-pyrazol-1-yl]-N-methyl-isobutyramide] | – | Ki [3]: 7.1 nM
10 | CNc1nc(Nc2c(C)nn(C)c2C)ncc1C(F)(F)F [Example 10, N^4-methyl-5-(trifluoromethyl)-N^2-(1,3,5-trimethyl-1H-pyrazol-4-yl)pyrimidinc-2,4-diamine] | – | Ki [4]: 96 nM
11 | CNc1nc(Nc2cnn(CC(F)(F)F)c2C)ncc1C#N [Example 358, 2-(5-methyl-1-(2,2,2-trifluoroethyl)-1H-pyrazol-4-ylamino)-4-(methylamino) pyrimidine-5-carbonitrile] | – | Ki [2]: 32 nM
12 | CNc1nc(Nc2cnn(CCF)c2C)ncc1C(F)(F)F [Example 133, N2-(1-(2-fluoroethyl)-5-methyl-1H-pyrazol-4-yl)-N4-methyl-5-(trifluoromethyl) pyrimidine-2,4-diamine] | 1.8 nM | –
13 | CNc1nc(Nc2cn(-c3cc(F)cc(F)c3)nc2C)ncc1Br [Example 116, 5-bromo-N2-(1-(3,5-difluorophenyl)-3-methyl-1H-pyrazol-4-yl)-N4-methylpyrimidine-2,4-diamine] | 0.3 nM | –
14 | CNc1nc(Nc2cnn(C3COC3)c2Cl)ncc1C(F)(F)F [Example 168, N2-(5-chloro-1-(oxetan-3-yl)-1H-pyrazol-4-yl)-N4-methyl-5-(trifluoromethyl) pyrimidine-2,4-diamine] | 9.5 nM | –
15 | CNc1nc(Nc2cc(C3CC3)nn2C)ncc1Cl [Example 45, 5-Chloro-N^2-(5-cyclopropyl-2-methyl-2H-pyrazol-3-yl)-N^4-methyl-pyrimidine-2,4-diamine] | – | Ki [4]: 13.4 nM
16 | CCNC(=O)C1(n2cc(Nc3ncc(C(F)(F)F)c(NC)n3)c(C)n2)CCC1 [Example 428] | – | Ki [3]: 24 nM
